The values that follow come from patent US12663415B2, “Chromogenic and fluorogenic compounds and their use for biological detection” (AAT Bioquest, Inc., priority 2022, dated 2026).

Starred links: 1 amine or outer side, 2 acyl side, 3 side chain; linkers in the order of their positions; H or OH if unused. Positions of bridges follow the written chain, without caps; N, C: chain ends. Residues, ends and D or L forms follow the SMILES beside them. Chains are numbered I, II in the order given. Rhodamine110 = O=C1OC2(c3ccc(N[*:1])cc3Oc3cc(N[*:2])ccc32)c2ccccc21

One assay has as its system E. coli endotoxin. Put plainly: Detection of endotoxin with Limulus Amebocyte Lysate (LAL) and fluorogenic substrate. It counts as biochemical. Conditions: Ex/Em=490/525 nm. On the procedure: FIG. 5. Illustrates the detection of E. coli endotoxin with an exemplary compound. E. coli endotoxin is measured in a black/solid bottom 96-well plate with Compound 7. The fluorescence intensity is recorded using a Gemini microplate reader at Ex/Em=490/525 nm, cutoff=515 nm. As low as 0.001 EU/mL of E. coli endotoxin can be detected.
Endotoxin is the major component of the outer membrane of Gram-negative bacteria. endotoxin is a potent stimulator of the vertebrate innate immune system and can cause fever, septic shock and eventually death. It is recognized as a biomarker for the detection of bacterial pathogen invasion and is responsible for the development of inflammatory response and endotoxic shock in extreme cases. […] The LAL enzymatic cascade can be activated by endotoxin at pH 6.0 to 7.5, and the amount of activated enzyme present can be measured by its ability to cleave the fluorogenic and/or chromogenic substrate. […] The endotoxin activity is proportional to the fluorescence intensity of rhodamine 110 resulting from the hydrolysis of Compound 7. The concentration of endotoxin in a sample can be calculated from a standard curve. […] The fluorescence intensities of the test sample solutions are recorded with a fluorescence microplate reader at Ex/Em=490/525 nm within 10-30 minutes.

A further assay deals with Caspase 3/7. Put plainly: Detection of apoptosis / caspase 3/7 activities in Jurkat cells, whole cell assay. The class given is cell-based. Conditions: staurosporine 0.5 μg/ml 2 hours, 50 μM substrate 2 hours at 37° C., Ex/Em=540/620 nm. As for the experimental part:
FIG. 3. Illustrates the detection of Caspase 3/7 activities in Jurkat cells with Compound 4. Jurkat cells are seeded on the same day at 200,000 cells/90 μL/well in a Costar black wall/clear bottom 96-well plate. The cells are treated with or without 1 μM of staurosporine for 5 hours. The caspase 3/7 working solution (100 μL/well) are added and incubated at room temperature for 1 hour. The fluorescence intensity is measured at Ex/Em=540/620 nm (Cutoff=610 nm) with FlexStation fluorescence microplate reader.
Jurkat T leukemia cells are grown in RPMI 1640 media (Life Technologies, Inc.) and 10% FCS (Sigma Chemical Company) in a 5% CO2-95% humidity incubator at 37° C., and maintained at a cell density between 4 and 8×10^5 cells/ml. Cells were harvested at 200×g and resuspended at 1×10^6 cells/ml into RPMI 1640 media containing 10% FCS and 1 ml each were dispensed in 2-wells of a 6-well plate. The apoptosis inducer staurosporine is added at 0.5 μg/ml concentration and the plate is incubated for 2 hours at 37° C. in a 5% CO2-95% humidity incubator. Cells are incubated with 50 μM of substrate Compound 4 for 2 hours at 37° C. in serum-free RPMI medium. The samples are analyzed with a fluorescence microplate reader (top or bottom read mode) at Ex/Em=540/620 nm (Cutoff=610 nm).

`CCC(C)C(NC(C)=O)C(=O)NC(CCC(=O)O)C(=O)NC(C)C(=O)NC(CCCNC(=N)N)C(=O)Nc1ccc2c(c1)Oc1cc(NC(=O)C(CCCNC(=N)N)NC(=O)C(C)NC(=O)C(CCC(=O)O)NC(=O)C(NC(C)=O)C(C)CC)ccc1C21OC(=O)c2ccccc21` (stereo not drawn) [Compound 7] (I: Ac-IEAR / II: Ac-IEAR; linker I:C-II:C via Rhodamine110; configuration not given here): the “lowest detectable E. coli endotoxin” value in the assay on E. coli endotoxin (96-well plate, cutoff=515 nm) was 0.001 EU/mL. Besides, the “fluorescence of hydrolyzed product (rhodamine 110) after hydrolysis by LAL in the presence of endotoxins” value in the assay on E. coli endotoxin (LAL 100 U, 10 uM substrate) was “strong green fluorescence”.
Regarding Compound 4 (DVED), the “cleavage of the caspase-3/7 substrate on induction of apoptosis” value in the assay on Caspase 3/7 was “leads to cleavage”.
